Test results from BindingDB's records for doi:10.1016/j.bmcl.2006.05.060 (University of Kentucky, 2006).

Columns and labels:
[1] = Displacement of radiolabeled NalBzOH from kappa3 opioid receptor in Hartley guinea pig brain
[2] = Displacement of radiolabeled DPDPE-Cl from delta opioid receptor in Hartley guinea pig brain

Row | Structure (SMILES) | Ki [1] | Ki [2]
1 | C=CCN1CCC23c4c5ccc(O)c4O[C@@H]2C(=NNC(=O)c2ccccc2)CCC3(O)C1C5 (stereo not given in full) | 0.3 nM | –
2 | CSCC[C@H](NC(=O)[C@H](Cc1ccccc1)NC(=O)CNC(=O)CNC(=O)[C@@H](N)Cc1ccc(O)cc1)C(=O)O [2-[(S)-2-(2-{2-[(S)-2-Amino-3-(4-hydroxy-phenyl)-propionylamino]-acetylamino}-acetylamino)-1-oxo-3-phenyl-propylamino]-4-methylsulfanyl-butyric acid] | 277 nM | –
3 | CC1(C)SSC(C)(C)[C@@H](NC(=O)[C@@H](N)Cc2ccc(O)cc2)C(=O)NCC(=O)N[C@@H](Cc2ccc(Cl)cc2)C(=O)N[C@H]1C(=O)O [(4S,7S,13S)-13-[(S)-2-Amino-3-(4-hydroxy-phenyl)-propionylamino]-7-(4-chloro-benzyl)-3,3,14,14-tetramethyl-6,9,12-trioxo-1,2-dithia-5,8,11-triaza-cyclotetradecane-4-carboxylic acid] | 1030 nM | –
4 | COc1ccc2c3c1O[C@H]1[C@@H](OS(=O)(=O)O)C=C[C@H]4[C@@H](C2)N(C)CC[C@@]341 [C6S] | 455 nM | 414 nM
5 | COc1ccc2c3c1O[C@H]1[C@@H](OS(=O)(=O)O)CC[C@H]4[C@@H](C2)N(C)CC[C@@]341 [DC6S] | 760 nM | 1150 nM
6 | CC(=O)Oc1ccc2c3c1O[C@H]1[C@@H](OS(=O)(=O)O)CC[C@H]4[C@@H](C2)N(C)CC[C@@]341 [DM3A6S] | – | 325 nM
7 | CN1CC[C@]23c4c5ccc(OC(=O)c6ccccc6)c4O[C@H]2[C@@H](OS(=O)(=O)O)CC[C@H]3[C@H]1C5 [DM3B6S] | – | 1600 nM
8 | CN1CC[C@]23c4c5ccc(O)c4O[C@H]2[C@@H](OS(=O)(=O)O)CC[C@H]3[C@H]1C5 [DM6S] | 7 nM | 19 nM
9 | CC(=O)Oc1ccc2c3c1O[C@H]1[C@@H](OS(=O)(=O)O)C=C[C@H]4[C@@H](C2)N(C)CC[C@@]341 [M3A6S] | 5.5 nM | 154 nM
10 | CN1CC[C@]23c4c5ccc(OC(=O)c6ccccc6)c4O[C@H]2[C@@H](OS(=O)(=O)O)C=C[C@H]3[C@H]1C5 [M3B6S] | 513 nM | 600 nM
11 | CC(C)C(=O)Oc1ccc2c3c1O[C@H]1[C@@H](OS(=O)(=O)O)C=C[C@H]4[C@@H](C2)N(C)CC[C@@]341 [M3IBu6S] | 266 nM | 584 nM
12 | CN1CC[C@]23c4c5ccc(OC(=O)C(C)(C)C)c4O[C@H]2[C@@H](OS(=O)(=O)O)C=C[C@H]3[C@H]1C5 [M3P6S] | 11 nM | 15 nM
13 | CCC(=O)Oc1ccc2c3c1O[C@H]1[C@@H](OS(=O)(=O)O)C=C[C@H]4[C@@H](C2)N(C)CC[C@@]341 [M3Pr6S] | 20 nM | 40 nM
14 | CN1CC[C@]23c4c5ccc(OS(=O)(=O)O)c4O[C@H]2[C@@H](O)C=C[C@H]3[C@H]1C5 [M3S] | 1690 nM | > 10000 nM
15 | CN1CC[C@]23c4c5ccc(O)c4O[C@H]2[C@@H](OS(=O)(=O)O)C=C[C@H]3[C@H]1C5 [M6S] | 6.3 nM | 18 nM
16 | CC(=O)Oc1ccc2c3c1O[C@H]1[C@@H](OS(=O)(=O)[O-])C=C[C@H]4[C@@H](C2)[N+](C)(C)CC[C@@]341 [MM3A6S] | 400 nM | 842 nM
17 | C[N+]1(C)CC[C@]23c4c5ccc(OC(=O)c6ccccc6)c4O[C@H]2[C@@H](OS(=O)(=O)[O-])C=C[C@H]3[C@H]1C5 [MM3B6S] | > 10000 nM | > 10000 nM
18 | C[C@@H](NC(=O)[C@@H](N)Cc1ccc(O)cc1)C(=O)NCC(=O)N(C)[C@@H](Cc1ccccc1)C(=O)NCCO [[tyrosyl-3,5-3H(N)]-D-Ala2-Mephe4-glyol5-enkephalin] | 27 nM | –
